Read-outs that look alike come from different tables or passages of the source.
How the values were obtained:
Assay in all cases: Thermal stability shift assay
Type in all cases: binding
CaMK1d = CaMK1d (Homo sapiens, UniProt Q8IU85); conditions: read-out: Tm shift CaMK1d
How it was run: (§1)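 2 μM protein + 10 μM inhibitor; 10 mM HEPES pH 7.5, 500 mM NaCl, SyproOrange 1:1000; melt in qPCR cycler, dye fluorescence monitored.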

OSR1 = molecular target: T1, OSR1 (Homo sapiens, UniProt O95747); conditions: read-out: Tm shift OSR1
T1 construct: purchased in-house (SGC Oxford thermal shift panel)
T1 sequence (O95747 whole entry): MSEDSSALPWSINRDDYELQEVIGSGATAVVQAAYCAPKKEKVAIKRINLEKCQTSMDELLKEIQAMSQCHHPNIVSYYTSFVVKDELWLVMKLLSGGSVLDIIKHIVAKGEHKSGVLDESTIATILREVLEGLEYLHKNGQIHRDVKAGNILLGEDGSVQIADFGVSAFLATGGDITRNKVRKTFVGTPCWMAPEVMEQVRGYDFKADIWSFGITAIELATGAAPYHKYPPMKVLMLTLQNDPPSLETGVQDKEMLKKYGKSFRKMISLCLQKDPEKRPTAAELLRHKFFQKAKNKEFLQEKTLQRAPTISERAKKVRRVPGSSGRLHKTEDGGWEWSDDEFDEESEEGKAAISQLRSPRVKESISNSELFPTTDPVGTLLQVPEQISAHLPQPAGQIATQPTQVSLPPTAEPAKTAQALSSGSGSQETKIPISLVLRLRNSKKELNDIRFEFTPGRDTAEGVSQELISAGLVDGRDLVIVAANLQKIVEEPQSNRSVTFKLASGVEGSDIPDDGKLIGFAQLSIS
How it was run: as §1

MST2 = molecular target: T2, MST2 (Homo sapiens, UniProt Q13188); conditions: read-out: Tm shift MST2
T2 construct: purchased in-house (SGC Oxford thermal shift panel)
T2 sequence (Q13188 1-491): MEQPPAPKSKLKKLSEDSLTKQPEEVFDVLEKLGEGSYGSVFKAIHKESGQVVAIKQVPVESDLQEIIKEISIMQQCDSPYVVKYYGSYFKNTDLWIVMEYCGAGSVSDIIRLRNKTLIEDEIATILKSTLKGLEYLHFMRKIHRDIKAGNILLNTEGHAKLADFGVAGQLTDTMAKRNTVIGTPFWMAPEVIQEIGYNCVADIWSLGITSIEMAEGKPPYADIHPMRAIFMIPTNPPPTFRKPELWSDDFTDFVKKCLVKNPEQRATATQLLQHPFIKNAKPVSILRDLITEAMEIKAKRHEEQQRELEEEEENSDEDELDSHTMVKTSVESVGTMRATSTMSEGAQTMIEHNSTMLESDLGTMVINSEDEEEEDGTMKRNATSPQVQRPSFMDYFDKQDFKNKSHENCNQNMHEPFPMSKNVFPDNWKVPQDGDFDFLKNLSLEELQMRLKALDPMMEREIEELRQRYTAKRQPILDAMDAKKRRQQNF
How it was run: as §1

DCAMKL1 = molecular target: T3, DCAMKL1 (Homo sapiens, UniProt O15075); conditions: read-out: Tm shift DCAMKL1
T3 construct: purchased in-house (SGC Oxford thermal shift panel)
T3 sequence (O15075 1-740): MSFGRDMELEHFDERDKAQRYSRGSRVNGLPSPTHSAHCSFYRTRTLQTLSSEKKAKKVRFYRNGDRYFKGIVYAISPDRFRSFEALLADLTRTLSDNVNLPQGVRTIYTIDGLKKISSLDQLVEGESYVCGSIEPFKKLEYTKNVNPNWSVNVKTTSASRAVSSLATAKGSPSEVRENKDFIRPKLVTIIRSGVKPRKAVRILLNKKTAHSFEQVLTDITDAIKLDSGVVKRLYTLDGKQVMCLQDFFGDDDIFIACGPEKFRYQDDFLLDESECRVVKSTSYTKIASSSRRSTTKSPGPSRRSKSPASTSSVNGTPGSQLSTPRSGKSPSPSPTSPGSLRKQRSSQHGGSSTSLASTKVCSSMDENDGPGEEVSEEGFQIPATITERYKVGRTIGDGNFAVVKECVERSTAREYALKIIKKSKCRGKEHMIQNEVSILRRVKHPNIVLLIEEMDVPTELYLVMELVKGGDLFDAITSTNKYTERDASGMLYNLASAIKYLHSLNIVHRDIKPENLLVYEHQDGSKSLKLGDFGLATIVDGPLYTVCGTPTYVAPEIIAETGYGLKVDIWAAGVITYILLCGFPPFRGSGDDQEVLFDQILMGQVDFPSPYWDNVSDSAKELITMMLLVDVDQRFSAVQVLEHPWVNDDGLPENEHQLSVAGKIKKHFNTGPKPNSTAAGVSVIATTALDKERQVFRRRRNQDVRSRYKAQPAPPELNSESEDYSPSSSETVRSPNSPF
How it was run: as §1

JNK1 = molecular target: T4, JNK1 (Homo sapiens, UniProt P45983); conditions: read-out: Tm shift JNK1
T4 construct: purchased in-house (SGC Oxford thermal shift panel)
T4 sequence (P45983 whole entry): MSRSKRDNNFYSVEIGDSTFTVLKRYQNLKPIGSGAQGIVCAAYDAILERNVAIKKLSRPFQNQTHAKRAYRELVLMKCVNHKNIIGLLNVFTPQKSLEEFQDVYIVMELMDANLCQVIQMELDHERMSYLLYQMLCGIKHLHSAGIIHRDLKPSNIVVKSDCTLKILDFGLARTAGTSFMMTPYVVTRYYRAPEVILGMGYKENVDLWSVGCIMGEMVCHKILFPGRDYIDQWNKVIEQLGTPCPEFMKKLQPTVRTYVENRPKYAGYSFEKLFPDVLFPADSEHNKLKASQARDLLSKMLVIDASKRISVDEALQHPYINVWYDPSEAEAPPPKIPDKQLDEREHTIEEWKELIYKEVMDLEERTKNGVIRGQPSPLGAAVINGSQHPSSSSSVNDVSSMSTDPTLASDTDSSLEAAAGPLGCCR
How it was run: as §1

CDKL1 = CDKL1 (Homo sapiens, UniProt Q00532); conditions: read-out: Tm shift CDKL1
Sequence of CDKL1 (Q00532 whole entry): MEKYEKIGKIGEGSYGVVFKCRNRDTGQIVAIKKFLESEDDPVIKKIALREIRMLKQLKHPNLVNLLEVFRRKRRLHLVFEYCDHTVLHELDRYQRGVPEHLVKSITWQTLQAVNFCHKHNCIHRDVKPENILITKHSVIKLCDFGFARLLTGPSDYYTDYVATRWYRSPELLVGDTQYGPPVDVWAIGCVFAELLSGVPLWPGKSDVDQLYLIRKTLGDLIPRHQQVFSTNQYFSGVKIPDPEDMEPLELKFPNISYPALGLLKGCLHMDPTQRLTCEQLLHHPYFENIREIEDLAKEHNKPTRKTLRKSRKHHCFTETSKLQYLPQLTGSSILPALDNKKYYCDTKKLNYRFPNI
How it was run: as §1

PKCz = molecular target: T5, PKCz (Homo sapiens, UniProt Q05513); conditions: read-out: Tm shift PKCz
T5 sequence (Q05513 1-592): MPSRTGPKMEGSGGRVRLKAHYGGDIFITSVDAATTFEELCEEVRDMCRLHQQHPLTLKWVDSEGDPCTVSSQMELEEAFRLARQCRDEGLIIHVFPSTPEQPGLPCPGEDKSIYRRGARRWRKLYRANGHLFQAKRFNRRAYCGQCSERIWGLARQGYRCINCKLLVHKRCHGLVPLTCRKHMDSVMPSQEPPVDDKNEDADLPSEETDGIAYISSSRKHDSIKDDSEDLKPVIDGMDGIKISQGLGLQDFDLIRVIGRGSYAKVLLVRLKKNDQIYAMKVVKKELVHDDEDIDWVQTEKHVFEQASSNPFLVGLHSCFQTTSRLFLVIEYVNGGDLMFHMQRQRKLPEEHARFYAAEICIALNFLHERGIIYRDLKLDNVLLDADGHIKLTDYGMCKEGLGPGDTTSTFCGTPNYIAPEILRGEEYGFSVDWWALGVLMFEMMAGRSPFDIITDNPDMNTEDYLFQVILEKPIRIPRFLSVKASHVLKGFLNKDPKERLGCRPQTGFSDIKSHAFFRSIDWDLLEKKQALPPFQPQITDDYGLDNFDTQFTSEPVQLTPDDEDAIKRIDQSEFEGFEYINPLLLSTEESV
How it was run: as §1

Sequence of CaMK1d (Q8IU85 whole entry): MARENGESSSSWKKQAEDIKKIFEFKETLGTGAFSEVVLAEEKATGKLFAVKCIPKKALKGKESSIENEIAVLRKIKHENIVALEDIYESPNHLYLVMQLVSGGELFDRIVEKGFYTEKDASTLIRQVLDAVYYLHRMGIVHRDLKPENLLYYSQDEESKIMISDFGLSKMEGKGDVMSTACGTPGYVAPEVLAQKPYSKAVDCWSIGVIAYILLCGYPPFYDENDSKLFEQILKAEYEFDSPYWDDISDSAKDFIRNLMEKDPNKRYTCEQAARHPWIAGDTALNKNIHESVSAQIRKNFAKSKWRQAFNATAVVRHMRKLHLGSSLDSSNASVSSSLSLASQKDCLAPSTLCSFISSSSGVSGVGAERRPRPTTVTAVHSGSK

Row | SMILES | ΔTm at 10 µM (CaMK1d) [°C] | ΔTm at 10 µM (OSR1) [°C] | ΔTm at 10 µM (MST2) [°C] | ΔTm at 10 µM (DCAMKL1) [°C] | ΔTm at 10 µM (JNK1) [°C] | ΔTm at 10 µM (CDKL1) [°C] | ΔTm at 10 µM (PKCz) [°C] | ΔTm at 10 µM (CaMK1d; inhibitor 10 μM) [°C] | ΔTm at 10 µM (OSR1; inhibitor 10 μM) [°C] | ΔTm at 10 µM (MST2; inhibitor 10 μM) [°C] | ΔTm at 10 µM (DCAMKL1; inhibitor 10 μM) [°C] | ΔTm at 10 µM (JNK1; inhibitor 10 μM) [°C] | ΔTm at 10 µM (CDKL1; inhibitor 10 μM) [°C] | ΔTm at 10 µM (PKCz; inhibitor 10 μM) [°C]
1 | CCOC(=O)c1c(C(C#N)=CN)c2ccc(Cl)c(Cl)c2n1C (mixture of isomers) [KH-CB20, (E/Z)-Ethyl 3-(2-Amino-1-Cyanovinyl)-6,7-Dichloro-1-Methyl-1H-Indole-2-Carboxylate] | -0.6 | 0.3 | 0.4 | -0.1 | 0.2 | 0.2 | 0.1 | – | – | – | – | – | – | –
2 | CCOC(=O)c1c(C(C#N)=CN(C)C)c2ccc(Cl)c(Cl)c2n1C (mixture of isomers) [compound 2, (E/Z)-Ethyl 6,7-Dichloro-3-[1-Cyano-2-(Dimethylamino)Vinyl]-1-Methyl-1H-Indole-2-Carboxylate] | – | – | – | – | – | – | – | -0.4 | 0 | 0.3 | 0.7 | 0.1 | 0.6 | 0.4
3 | NC1=NC(=O)/C(=C2\CCNC(=O)c3[nH]c(Br)cc32)N1 [Hymenialdisine, hymenialdisine, reference compound] | – | – | – | – | – | – | – | 0 | 0.5 | 3.9 | 0.5 | -0.5 | 0.6 | -0.2
4 | CCOC(=O)c1c(/C(C#N)=C\N)c2ccc(Cl)c(Cl)c2n1C [KH-CB19, (E)-Ethyl 3-(2-Amino-1-Cyanovinyl)-6,7-Dichloro-1-Methyl-1H-Indole-2-Carboxylate] | 0.1 | 0.3 | 0.2 | -0.2 | 0.9 | 0 | -0.2 | – | – | – | – | – | – | –
5 | Cn1c2c(Cl)c(Cl)ccc2c2c(C#N)c[nH]c(=O)c21 [compound 3, 7,8-Dichloro-9-Methyl-1-Oxo-2,9-Dihydro-1H-Pyrido[3,4-b]Indole-4-Carbonitrile] | – | – | – | – | – | – | – | -0.3 | 0.3 | -0.5 | 0 | 0.2 | 0.2 | 0.5

Reference: article PMC3145970, “Specific CLK Inhibitors from a Novel Chemotype for Regulation of Alternative Splicing” (Chemistry & Biology, 2011)
